Laboratory results from patent US20050054103A1, “Expansion of renewable stem cell populations using modulators of PI 3-kinase” (priority 2003, published 2005).

Assays:
CD34 cells = assay: Transition metal chelators in CD34+ cell liquid cultures (cell number, CD34 cells, clonability); assay type: cell-based, human; conditions: for cell proliferation and CFUc expansion in long-term CD34 cultures: long term cultures with early cytokines
Procedure: The interphase layer of mononuclear cells were collected, washed three times with Ca/Mg free phosphate buffered saline containing 1% bovine serum albumin (BSA). The cells were incubated for 30 min. at 4° C. with murine monoclonal anti CD34 antibody (0.5 μg/10^6 mononuclear cells) and thereafter isolated using the miniMACS apparatus (Miltenyi-Biotec, Bergisch, Gladbach, Germany) according to the manufacturer's protocol.
Culture procedures: For the expansion of progenitor cells, CD34^+ enriched fractions or unseparated mononuclear cells were seeded at about 1-3×10^4 cells/ml in either alpha minimal essential medium containing 10% preselected fetal calf serum (FCS) (both from GIBCO, Grand Island, N.Y.), or serum-free medium (Progenitor-34 medium, Life Technologies, Grand Island, N.Y.). The media were supplemented with a mixture of growth factors and transition metal chelators. The cultures were incubated at 37° C. in an atmosphere of 5% CO2 in air with extra humidity. Half of the medium was changed weekly with fresh medium containing all the supplements.
Cloning potential evaluations: The cloning potential of cells developed in the liquid culture was assayed, at different intervals, in semi-solid medium. The cells were washed and seeded in 35 mm dishes in methylcellulose containing alpha medium supplemented with recombinant growth factors (SCF, G-CSF, GM-CSF and EPO). Following 2 weeks incubation, the cultures were scored with an inverted microscope. Colonies were classified as blast, mixed, erythroid, myeloid, and megakaryocytic, according to their cellular composition.
Morphological assessment: In order to characterize the resulting culture populations, aliquots of cells were deposited on a glass slide (cytocentrifuge, Shandon, Runcorn, UK), fixed and stained in May-Grunwald Giemsa. Other aliquots were stained by benzidine for intracellular hemoglobin.
Immunofluorescence staining: At different intervals, cells from the liquid cultures were assayed for CD34 antigen. Aliquots were harvested, washed and incubated on ice with FITC-labeled anti CD45 monoclonal antibody and either PE-labeled anti CD34 (HPCA-2) monoclonal antibody or PE-labeled control mouse Ig. After incubation, red cells were lysed with lysing solution, while the remaining cells were washed and analyzed by flow cytometer.
Flow cytometry: Cells were analyzed and sorted using FACStar^plus flow cytometer (Becton-Dickinson, Immunofluorometry systems, Mountain View, Calif.). Cells were passed at a rate of 1,000 cells/second through a […] nozzle, using saline as the sheath fluid. […] The PMTs was set at the appropriate voltage. Logarithmic amplification was applied for measurements of fluorescence and linear amplification—for forward light scatter. At least 10^4 cells were analyzed.
Cord blood-derived CD34 cells were plated in liquid culture in the presence of: FL—50 ng/ml, SCF—50 ng/ml, IL-6—50 ng/ml, with or without IL-3—20 ng/ml, with or without TEPA—10 μM. On day 7, the percentage of CD34 cells and the total cell number were determined. Aliquots equivalent to 1×10^3 initiating cells were assayed on days 0 and 7 for colony forming cells (CFU) by cloning in semi-solid medium. CFU expansion represents the ratio of CFU present on day 7 to CFU present on day 0.
CD34^+ cells derived from human neonatal cord blood were purified by immunomagnetic method and then cultured in liquid medium supplemented with cytokines either with or without transition metal chelators. At weekly intervals, the cultures were demi-depopulated by removing half of the culture content (supernatant and cells) and replacing it with fresh medium, cytokines and the chelators. At the indicated weeks the cellular content of the cultures were quantified for total cells (by a manual microscopic/hemocytometric method), for CD34^+ cells (by immuno-flow cytometry) and for clonogenic cells (by cloning the cells in cytokine-supplemented semi-solid medium).

HL-60 cells = assay: Copper determination in chelator treated cells (atomic absorption); assay type: cell-based, human; conditions: for activity at 20 µM / activity at 100 µM / activity at 500 µM: Homo sapiens, HL-60, read-out: Average Intracellular Cu (% of control)
Procedure: Copper Determination: Cells were harvested by centrifugation at 1000×g for 5 minutes. The cell pellet was washed three times by re-suspending the cells in PBS (Ca^++ and Mg^++ free) and centrifugation at 1000×g. An aliquot containing 2×10^6 cells was then transferred into a metal-free Eppendorf tube and the cells were recovered by centrifugation at 1000×g. The cell pellet was re-suspended in 0.03 M ultra-pure nitric acid to give a concentration of 1×10^7 cells/ml. The cells were homogenized with a high shear mixer (polytron, Kinematica, Switzerland) for 1 minutes to disrupt the cell and release intracellular copper content. Cell samples were vortexed before transferring to a vial autosampler and analyzed in duplicate by a Perkin Elmer graphite furnace atomic absorption spectrophotometer at a wavelength of 324.7 nm. The samples were analyzed against copper standard solution prepared from a commercial stock solution that was diluted with 0.03 M ultra pure nitric acid.
FIG. 44 provides the chemical structure of the various chelators employed in these experiments.

CD34+ cells [1] = assay: Ex vivo expansion of CD34+ cell enriched cultures with RXR, RAR and RAR+RXR antagonists (CFU, CD34+ counts, FACS); assay type: cell-based, human
Procedure: Cultures were prepared and maintained as described above.
, the percentage of cells bearing the CD34^+ marker (considered to be mostly committed progenitor cells), as well as the percentage of cells bearing the markers CD34^+/CD38^− and CD34^+Lin^− […]

[2] = system: Mouse erythroleukemic cells (MEL); assay: HMBA-induced differentiation of erythroleukemic cells; assay type: cell-based; conditions: day 3
Procedure: Mouse erythroleukemic cells (MEL): MEL cells are erythroblast like cells. Following treatment with several chemicals (differentiation inducers) the cells undergo erythroid differentiation and accumulate hemoglobin. […] At day 3 of the culture, the total number of cells and the percentage of hemoglobin-containing cells were determined (Table 7).
On day 3, total cell number and hemoglobin containing (benzidine positive) cells were determined.

CD34+ cells [3] = assay: Nicotinamide supplementation of ex-vivo hematopoietic stem/progenitor cell cultures; assay type: cell-based, human; conditions: for CD34+ cells per ml: 5 cytokines, re-selected
Procedure: Cultures were prepared and maintained as described above. Nicotinamide was added to cell cultures at concentrations of 1, 5 or 10 mM for up to three weeks culture period. All other procedures including mononuclear cell fraction collection and purification, purification of CD34^+ cells from mononuclear cell fractions, ex-vivo expansion of stem/progenitor cell populations, morphological assessment, surface antigen analysis, determination of CD34, CD38, Lin and other hematopoietic marker expression and cell population calculations were carried out as described in the experimental methods section of Example 1 above.
Hematopoietic CD34+ cell cultures were initiated in the presence of a combination of 5 cytokines, SCF, TPO, FLt3, IL-6 and IL-3, with or without different concentrations of nicotinamide. Following three weeks incubation period, the CD34+ cells were re-selected from culture by affinity re-purification method and were enumerated. […] In addition, the re-selected CD34+ cell fraction was FACS analyzed for stem/progenitor cell markers. The results, presented in FIGS. 15-17 and 18a-b, show substantial increases in the proportion of CD34+/CD38−, CD34+/Lin− and CD34+/(HLA-DR38−) cells in cultures treated with nicotinamide.

[4] = polyamine chelating agents, long-term CD34 cultures (FIGS. 39a-b)
[5] = HX-531 (10^−5M in table head), 3 weeks after seeding

Row | Compound | Average Intracellular ppb Cu (HL-60 cells; 20 μM chelator) [ppb] | Average Intracellular ppb Cu (HL-60 cells; 100 μM chelator) [ppb] | Average Intracellular ppb Cu (HL-60 cells; 500 μM chelator) [ppb] | activity at 20 µM (HL-60 cells; 20 μM chelator) [%] | activity at 100 µM (HL-60 cells; 100 μM chelator) [%] | activity at 500 µM (HL-60 cells; 500 μM chelator) [%] | further results
1 | Zinc |  |  |  |  |  |  | cell proliferation and CFUc expansion in long-term CD34 cultures (CD34 cells): mimicked the effect of the chelating agents in long term cultures, but to a smaller extent than the chelators themselves
2 | NCCCN(CCN)CCN [N,N,Bis (2 animoethyl) 1,3 propane diamine] | 10.8 | 13.4 |  |  |  |  | Average Intracellular Cu (% of control) (HL-60 cells; 20 μM chelator): 22%; Average Intracellular Cu (% of control) (HL-60 cells; 100 μM chelator): 27%
3 | CCCOc1cc2c(cc1\C(C)=C/C=C/C(C)=C/C(=O)O)C(C)(C)CCC2(C)C [LGN 100754] |  |  |  |  |  |  | activity on ex vivo expansion of stem/progenitor cells (CFU, CD34+, CD34+/38−, CD34+/Lin−) (CD34+ cells [1]; 10^−7 M, with TPO, FLT3, IL-6 and IL-3, 3 and 5 weeks): no activity
4 | C1CNCCOCCNCCN1 [1-Oxa-4,7,10-triazacyclododecane] | 39.0 | 22.9 | 17.6 | 79 | 46 | 36 | 
5 | NCCCNCCCNCCCN [N,N′-bis(3-aminopropyl)-1,3-propanediamine] | 33.8 | 26.2 | 27.9 | 69 | 53 | 57 | 
6 | CC(=O)NCCCCCCNC(C)=O [HMBA, hexamethylene bisacetamide] |  |  |  |  |  |  | Benzidine Positive Cells (%) ([2]; HMBA 4 mM alone): 46%; Cells/ml (×10^4) ([2]; HMBA 4 mM alone): 32 ×10^4
7 | NC(=O)c1cccnc1 [Nicotinamide] |  |  |  |  |  |  | CD34+ cells per ml (CD34+ cells [3]; 1 mM nicotinamide, three weeks): 99×10^4 cells per ml; increase in CD34+/CD38− cells density vs untreated control (CD34+ cells [3]; 1 mM, three weeks): 1.7 fold; increase in CD34+/Lin− cells density vs untreated control (CD34+ cells [3]; 1 mM, three weeks): 10.5 fold; CD34+ cells per ml (CD34+ cells [3]; 5 mM nicotinamide, three weeks): 180×10^4 cells per ml; increase in CD34+/(HLA-DR38−) cells density vs untreated control (CD34+ cells [3]; 5 mM, three weeks): 11.5 fold; increase in CD34+/CD38− cells density vs untreated control (CD34+ cells [3]; 5 mM, three weeks): 51.7 fold; increase in CD34+/Lin− cells density vs untreated control (CD34+ cells [3]; 5 mM, three weeks): 205.5 fold; % of CD34^+/CD38^− of total cells (CD34+ cells [3]; Nicotinamide 5 mM): 9.69%; % of CD34^+/Lin^− of total cells (CD34+ cells [3]; Nicotinamide 5 mM): 4.11%; % of CD34^+/CD38^− of total cells (CD34+ cells [3]; Nicotinamide 10 mM): 34.67%; % of CD34^+/Lin^− of total cells (CD34+ cells [3]; Nicotinamide 10 mM): 16.58%
8 | O=C1CC(=O)NCCNCCCNCCN1 [1,4,8,11-Tetraaza cyclotetradecane-5,7-dione] | 37.9 | 27.4 | 28.3 | 77 | 56 | 57 | 
9 | CC(C)(S)[C@@H](N)C(=O)O [PEN, Penicillamine] |  |  |  |  |  |  | cell proliferation and CFUc expansion in long-term CD34 cultures (CD34 cells): sustained cell proliferation and expansion of clonogenic cells; concentration with optimal activity (CD34 cells; transition metal chelating agents, long-term CD34 cultures (FIGS. 40a-b)): 5 µM
10 | NCCNCCNCCN [TETA, triethylene-tetramine] | 27.7 | 21.2 | 16.8 | 56 | 43 | 34 | cell proliferation and CFUc expansion in long-term CD34 cultures (CD34 cells): support continuous cell proliferation and long-term generation of CFUc and to delay cell differentiation; concentration with optimal activity (CD34 cells; [4]): 20 µM
11 | C1COCCNCCOCCN1 [1,7-Dioxa-4,10-diazacyclododecane] | 35.5 | 36.1 | 35.0 | 72 | 73 | 71 | 
12 | C[C@H](CS)C(=O)N1CCC[C@H]1C(=O)O [Captopril, captopril] |  |  |  |  |  |  | Benzidine Positive Cells (%) ([2]; HMBA + chelator 20 μM): 29%; Cells/ml (×10^4) ([2]; HMBA + chelator 20 μM): 34 ×10^4; Benzidine Positive Cells (%) ([2]; HMBA + chelator 40 μM): 12%; Cells/ml (×10^4) ([2]; HMBA + chelator 40 μM): 34 ×10^4
13 | C1CNCCCNCCNCCCNC1 [1,4,8,12-tetraaza cyclopentadecane] | 13.4 | 12.1 | 9.6 | 27 | 25 | 19 | 
14 | C1CNCCNCCN1.Cl.Cl.Cl [1,4,7-Triazacyclononane trihydrochloride] | 15.8 | 17.7 |  | 32 | 36 |  | 
15 | NCCN [EDA, ethylenediamine] |  |  |  |  |  |  | cell proliferation and CFUc expansion in long-term CD34 cultures (CD34 cells): support continuous cell proliferation and long-term generation of CFUc and to delay cell differentiation; concentration with optimal activity (CD34 cells; [4]): 20 µM
16 | Glycyl-glycyl-histidine Cu complex | 202.7 | 582 | 1278 |  |  |  | Average Intracellular Cu (% of control) (HL-60 cells; 20 μM chelator): 411%; Average Intracellular Cu (% of control) (HL-60 cells; 100 μM chelator): 1181%; Average Intracellular Cu (% of control) (HL-60 cells; 500 μM chelator): 2592%
17 | Copper |  |  |  |  |  |  | effect on TEPA activities (CD34 cells; TEPA-treated cultures supplemented with Copper): reversed
18 | CN1c2ccc([N+](=O)[O-])cc2N=C(c2ccc(C(=O)O)cc2)c2cc3c(cc21)C(C)(C)CCC3(C)C [HX-531, 4-[5H-2,3-(2,5-Dimethyl-2,5-Hexano) 5-Methyl-8-nitrodibenzo [b,e][1,4]diazepin-11-yl) Benzoic acid] |  |  |  |  |  |  | CD34^+ (×10^4) (CD34+ cells [1]; [5]): 167 ×10^4; CFU (×10^3) (CD34+ cells [1]; [5]): 1920 ×10^3; CFU mixed (×10^3) (CD34+ cells [1]; HX-531, 3 weeks after seeding): 120 ×10^3; CD34^+ (×10^4) (CD34+ cells [1]; HX-531, 5 weeks after seeding): 1636 ×10^4; CFU (×10^3) (CD34+ cells [1]; HX-531, 5 weeks after seeding): 8542 ×10^3; CD34^+ (×10^4) (CD34+ cells [1]; HX-531, 9 weeks after seeding): 4977 ×10^4; CFU (×10^3) (CD34+ cells [1]; HX-531, 9 weeks after seeding): 36557 ×10^3; CD34^+ (×10^4) (CD34+ cells [1]; HX-531, 11 weeks after seeding): 4055 ×10^4; CFU (×10^3) (CD34+ cells [1]; HX-531, 11 weeks after seeding): 67338 ×10^3
